We go through 48 molecules from patent publication US6506936B1, “N-substituted arylsulfonylamino hydroxamic acids useful as inhibitors of c-proteinase and for treating or preventing disorders related to unregulated collagen production” (FibroGen, Inc., priority 1999, dated 2003).

In general, IC50 refers to the concentration that gives 50% inhibition.

One data set has as its system human foreskin fibroblasts. Kind of data set: Cytotoxicity: metabolic activity (WST-1) of quiescent fibroblasts exposed to inhibitor. Particulars: 25 μM compound, 0.5% DMSO, 48 hours, 60% or below = very sick or dead. Format: cell-based. The protocol: C-proteinase inhibitors were studied in cytotoxicity assays wherein quiescent cells were exposed to C-proteinase inhibitors for a given time and cell viability measured. By examining cellular metabolic activity, cell viability and cell survival were determined.
C-proteinase inhibitors were tested on human foreskin fibroblasts that had been grown to confluence in 96 well microtiter plates in Dulbecco's Modified Eagle Medium (DMEM) containing 10% fetal calf serum. Shortly before adding the inhibitors, the media was removed and 90 μl per microtiter well of fresh serum-free DMEM was added to the cells. The C-proteinase inhibitors were made up as concentrated stocks containing compound at 250 μM in the presence of 5% DMSO as solvent. A concentrated stock of 10 μl was added to each microtiter well to give a final compound concentration of 25 μM in the presence of 0.5% DMSO. The cells were incubated in the presence of the C-proteinase inhibitor for 48 hours, and then cell viability and survival were measured as a function of metabolic activity. To examine cellular metabolic activity, 10 μl of WST-1 reagent (Boehringer Mannheim) was added to each well of a 96 well microtiter plate containing quiescent cells that were already in media. The plate was incubated at 37° C. for 120 minutes and removed. The absorbance at 450 nm-650 nm was recorded. […] Controls included untreated healthy cells, and cells killed with 0.1% saponin.
Cytotoxicity was evaluated as a function of cellular survival. Cellular survival was determined by measuring the metabolic activity of the quiescent cells after exposure to the C-proteinase inhibitors. To determine the metabolic activity of the cells, the color change of a trazolium dye over time was examined according to Mossmann, […], Immunol. Methods 65:66; Carmichael, 1987, Cancer Res 47:936, incorporated herein by reference. Healthy cells cleaved the dye producing a colored product that can be quantitated. […] Dead cells had no metabolic activity and no effect on the dye was shown.
The amount of dye cleaved by cells that had been incubated with inhibitor, expressed as a percentage relative to untreated cells, is shown in TABLE 2. Cells that register at 60% or below are considered either very sick or dead. Control cells that were intentionally killed give a value of close to 20%.
A general note: Tetrazolium assays rely on reduction of a dye to a coloured formazan, in cell work by metabolically active cells.
For the molecule `COc1ccc(S(=O)(=O)N(CCC(=O)NO)CCc2ccc(Cl)cc2)cc1` [Compound 1300], the “Percent Metabolic Activity of Fibroblasts Exposed To Various C-Proteinase Inhibitors Relative to Untreated Fibroblasts” value worked out at 109.9%.

On to `COc1ccc(S(=O)(=O)N(CCC(=O)NO)C2C3CC4CC(C3)CC2C4)cc1` (stereo not shown) [Compound 1335], for which the “Percent Metabolic Activity of Fibroblasts Exposed To Various C-Proteinase Inhibitors Relative to Untreated Fibroblasts” value stood at 113.3%.

As for `CC(=O)Nc1ccc(S(=O)(=O)N(CCC(=O)NO)Cc2ccc3c(c2)OCO3)cc1` [Compound 1357], the “Percent Metabolic Activity of Fibroblasts Exposed To Various C-Proteinase Inhibitors Relative to Untreated Fibroblasts” value is reported as 108.1%.

For the molecule `CCCCCCCCS(=O)(=O)N(CCC(=O)NO)Cc1ccc2c(c1)OCO2` [Compound 1359], the “Percent Metabolic Activity of Fibroblasts Exposed To Various C-Proteinase Inhibitors Relative to Untreated Fibroblasts” value was determined as 101.1%.

With `O=C(CCN(Cc1ccc2c(c1)OCO2)S(=O)(=O)c1ccc(S(=O)(=O)c2ccccc2)s1)NO` [Compound 1361], the “Percent Metabolic Activity of Fibroblasts Exposed To Various C-Proteinase Inhibitors Relative to Untreated Fibroblasts” value turned out to be 103.4%.

Regarding `O=C(CCN(Cc1ccc2c(c1)OCO2)S(=O)(=O)c1cccc2nsnc12)NO` [Compound 1362], the “Percent Metabolic Activity of Fibroblasts Exposed To Various C-Proteinase Inhibitors Relative to Untreated Fibroblasts” value is on record as 119.4%.

Regarding `O=C(CCN(Cc1ccc2c(c1)OCO2)S(=O)(=O)c1ccc(Br)s1)NO` [Compound 1367], the “Percent Metabolic Activity of Fibroblasts Exposed To Various C-Proteinase Inhibitors Relative to Untreated Fibroblasts” value came out at 114.5%.

Consider `N/C(=N\O)c1ccc(S(=O)(=O)N(CCC(=O)NO)Cc2ccc3c(c2)OCO3)cc1` [Compound 1369], for which the “Percent Metabolic Activity of Fibroblasts Exposed To Various C-Proteinase Inhibitors Relative to Untreated Fibroblasts” value came to 117.1%.

Turning to `O=C(CCN(Cc1ccc2c(c1)OCO2)S(=O)(=O)c1cccs1)NO` [Compound 1371], the “Percent Metabolic Activity of Fibroblasts Exposed To Various C-Proteinase Inhibitors Relative to Untreated Fibroblasts” value came to 114.4%.

With `CCCCOc1ccc(S(=O)(=O)N(CCC(=O)NO)Cc2ccc3c(c2)OCO3)cc1` [Compound 1372], the “Percent Metabolic Activity of Fibroblasts Exposed To Various C-Proteinase Inhibitors Relative to Untreated Fibroblasts” value came out at 109.2%.

Take `COc1ccc(S(=O)(=O)N(CCC(=O)NO)CC2COc3ccccc3O2)cc1` (stereo not shown) [Compound 1374]: the “Percent Metabolic Activity of Fibroblasts Exposed To Various C-Proteinase Inhibitors Relative to Untreated Fibroblasts” value is listed as 117.6%.

Take `COc1ccccc1CCN(CCC(=O)NO)S(=O)(=O)c1ccc(C(=O)O)cc1` [Compound 1405]: the “Percent Metabolic Activity of Fibroblasts Exposed To Various C-Proteinase Inhibitors Relative to Untreated Fibroblasts” value is 114.5%.

The next data set addresses T1, recombinant human C-proteinase (Homo sapiens, UniProt P13497).
T1 sequence (P13497 121-986): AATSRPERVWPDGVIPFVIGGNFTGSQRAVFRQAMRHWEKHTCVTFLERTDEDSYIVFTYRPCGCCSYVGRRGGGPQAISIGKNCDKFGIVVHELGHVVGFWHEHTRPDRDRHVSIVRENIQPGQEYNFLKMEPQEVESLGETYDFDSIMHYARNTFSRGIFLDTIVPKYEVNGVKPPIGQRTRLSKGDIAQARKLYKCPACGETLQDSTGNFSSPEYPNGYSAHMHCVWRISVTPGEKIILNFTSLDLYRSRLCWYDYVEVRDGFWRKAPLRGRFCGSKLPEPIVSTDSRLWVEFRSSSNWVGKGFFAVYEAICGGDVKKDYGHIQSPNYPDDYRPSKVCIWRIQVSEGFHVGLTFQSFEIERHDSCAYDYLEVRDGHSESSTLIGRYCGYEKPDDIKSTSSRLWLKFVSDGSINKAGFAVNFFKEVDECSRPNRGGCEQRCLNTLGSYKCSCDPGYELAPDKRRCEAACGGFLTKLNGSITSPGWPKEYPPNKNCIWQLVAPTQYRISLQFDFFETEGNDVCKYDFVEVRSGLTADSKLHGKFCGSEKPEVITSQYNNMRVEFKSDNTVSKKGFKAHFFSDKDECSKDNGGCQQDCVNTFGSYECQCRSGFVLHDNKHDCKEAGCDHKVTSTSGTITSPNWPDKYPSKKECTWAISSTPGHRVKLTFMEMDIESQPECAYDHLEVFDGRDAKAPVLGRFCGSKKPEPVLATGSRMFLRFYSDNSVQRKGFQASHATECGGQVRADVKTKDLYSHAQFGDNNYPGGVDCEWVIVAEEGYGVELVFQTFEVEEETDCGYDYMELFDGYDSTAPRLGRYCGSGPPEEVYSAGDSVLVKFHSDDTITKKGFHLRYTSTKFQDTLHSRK
Kind of data set: C-proteinase IC50 assay with fluorogenic peptide. In kind it is biochemical.
Settings: not given
The protocol:
The reaction was started with the addition of 20 μl of the recombinant human C-proteinase mix. The reaction proceeded for 4 hours at 37° C. and the fluorescence was measured using a Bio-Tek Fl-600.
For `COc1ccc(S(=O)(=O)N(CCC(=O)NO)CCc2ccccn2)cc1` [compound 1132], the IC50 came out at 8 µM.

The data set is the same for the next values; noted with them: IC50 (μM) Of Various C-Proteinase Inhibitors.
Turning to `COc1ccc(S(=O)(=O)N(CCC(=O)NO)Cc2ccccc2)cc1` [compound 121], the IC50 came out at 9 µM.

In the case of `COc1ccc(S(=O)(=O)N(CCC(=O)NO)c2ccccc2)cc1` [compound 124], the IC50 stood at 2 µM.

With `COc1ccc(S(=O)(=O)N(CCc2ccccc2)CC(=O)NO)cc1` [compound 128], the IC50 amounted to 15.3 µM.

Consider `COc1ccc(N(CCC(=O)NO)S(=O)(=O)c2ccc(OC)cc2)cc1` [compound 208], for which the IC50 came to 1.68 µM.

As to `COc1ccc(S(=O)(=O)N(CCC(=O)NO)CCN2CCOCC2)cc1` [compound 1131], the IC50 was 80.5 µM.

With `COc1ccc(CCN(CCC(=O)NO)S(=O)(=O)c2cccc(/C(N)=N/O)c2)cc1` [compound 1456], the IC50 worked out at 0.4 µM.

The data set is the same for the next values; noted with them: IC50 of Cpase.
In the case of `COc1ccc(N(CCC(=O)NO)S(=O)(=O)c2ccc(OC)cc2)cc1` [compound 208], the concentration for half-maximal inhibition (IC50) was 1.68 µM.

Still in this data set, the particulars now being: recombinant human C-proteinase, 50 μM fluorogenic peptide, 4 hours at 37° C.; read-out: IC50 (μM) Of Various C-Proteinase Inhibitors.
Turning to `COc1ccc(CCN(CC(=O)NO)S(=O)(=O)c2ccc(OC)cc2)cc1` [compound 204], the IC50 is 22.1 µM.

Turning to `COc1ccc(S(=O)(=O)N(CCC(=O)NO)Cc2ccc(Cl)cc2)cc1` [compound 1237], the IC50 was found to be 3.57 µM.

For the molecule `O=C(CCN(CCc1ccccc1)S(=O)(=O)c1ccc([N+](=O)[O-])cc1)NO` [compound 1268], the IC50 amounted to 3.03 µM.

As for `O=C(CCN(CCc1ccccc1)S(=O)(=O)c1cccs1)NO` [compound 1270], the IC50 was 1.21 µM.

With `COc1ccc(S(=O)(=O)N(CCC(=O)NO)Cc2ccc3c(c2)OCO3)cc1` [compound 1273], the IC50 worked out at 0.63 µM.

In the case of `COc1ccc(S(=O)(=O)N(CCC(=O)NO)CCc2ccc(Cl)cc2)cc1` [compound 1300], the IC50 turned out to be 2.43 µM.

For the molecule `COc1ccc(S(=O)(=O)N(CCC(=O)NO)C2C3CC4CC(C3)CC2C4)cc1` (stereo not shown) [compound 1335], the IC50 was 36.5 µM.

Consider `CC(=O)Nc1ccc(S(=O)(=O)N(CCC(=O)NO)Cc2ccc3c(c2)OCO3)cc1` [compound 1357], for which the IC50 was 0.55 µM.

As for `O=C(CCN(Cc1ccc2c(c1)OCO2)S(=O)(=O)c1ccc(S(=O)(=O)c2ccccc2)s1)NO` [compound 1361], the IC50 is 0.88 µM.

On to `O=C(CCN(Cc1ccc2c(c1)OCO2)S(=O)(=O)c1cccc2nsnc12)NO` [compound 1362], for which the IC50 is 1.51 µM.

As for `O=C(CCN(Cc1ccc2c(c1)OCO2)S(=O)(=O)c1ccc(Br)s1)NO` [compound 1367], the IC50 worked out at 1.47 µM.

As for `N/C(=N\O)c1ccc(S(=O)(=O)N(CCC(=O)NO)Cc2ccc3c(c2)OCO3)cc1` [compound 1369], the IC50 turned out to be 0.23 µM.

Turning to `O=C(CCN(Cc1ccc2c(c1)OCO2)S(=O)(=O)c1cccs1)NO` [compound 1371], the IC50 is 0.91 µM.

For the molecule `CCCCOc1ccc(S(=O)(=O)N(CCC(=O)NO)Cc2ccc3c(c2)OCO3)cc1` [compound 1372], the IC50 worked out at 1.7 µM.

As for `COc1ccccc1CCN(CCC(=O)NO)S(=O)(=O)c1ccc(C(=O)O)cc1` [compound 1405], the IC50 was determined as 1.46 µM.

For the molecule `N/C(=N\O)c1ccc(S(=O)(=O)N(CCC(=O)NO)CCc2cccs2)cc1` [compound 1409], the IC50 is 0.18 µM.

Regarding `COc1ccc(S(=O)(=O)N(CCC(=O)NO)Cc2ccc3c(c2)OCO3)cc1OC` [compound 1410], the IC50 was found to be 1.77 µM.

For `CC(=O)Nc1ccc(S(=O)(=O)N(CCC(=O)NO)CCc2cccs2)cc1` [compound 1411], the IC50 worked out at 0.39 µM.

Take `O=C(CCN(CCc1cccs1)S(=O)(=O)Cc1ccccc1)NO` [compound 1414]: the IC50 came to 3.5 µM.

With `CCCCOc1ccc(S(=O)(=O)N(CCC(=O)NO)CCc2cccs2)cc1` [compound 1416], the IC50 turned out to be 0.82 µM.

With `O=C(CCN(CCc1cccs1)S(=O)(=O)c1ccc(Br)s1)NO` [compound 1417], the IC50 turned out to be 1.67 µM.

Turning to `O=C(CCN(CCc1cccs1)S(=O)(=O)c1ccc(S(=O)(=O)c2ccccc2)s1)NO` [compound 1419], the IC50 is 3.95 µM.

In the case of `O=C(CCN(CCc1cccs1)S(=O)(=O)c1cccs1)NO` [compound 1425], the IC50 worked out at 1.32 µM.

As to `N/C(=N\O)c1cccc(S(=O)(=O)N(CCC(=O)NO)CCc2cccs2)c1` [compound 1457], the IC50 turned out to be 0.84 µM.

`N/C(=N\O)c1cccc(S(=O)(=O)N(CCC(=O)NO)Cc2ccc3c(c2)OCO3)c1` [compound 1458]: the IC50 came to 0.25 µM.

`CS(=O)(=O)c1ccc(S(=O)(=O)N(CCC(=O)NO)CCc2cccs2)cc1` [compound 1463]: the IC50 worked out at 0.7 µM.

Consider `CS(=O)(=O)c1ccc(S(=O)(=O)N(CCC(=O)NO)Cc2ccc3c(c2)OCO3)cc1` [compound 1464], for which the IC50 came to 0.35 µM.

Turning to `COc1ccc(CCN(CCC(=O)NO)S(=O)(=O)c2cccc(N)c2)cc1` [compound 1492], the IC50 amounted to 0.32 µM.

Turning to `COc1ccc(CCN(CCC(=O)NO)S(=O)(=O)c2ccc(-c3nnn[nH]3)cc2)cc1` [compound 1496], the IC50 was determined as 0.25 µM.
